This is an account of results in patent publication US7452546B2, “Particles containing agricultural active ingredients” (priority 1997, dated 2008).

Data set [1] in a line: Water saturation concentration of active ingredient. The format is physicochemical. As to conditions: room temperature stated for epoxiconazole.
The next data set concerns plants. To be noted: cited from earlier work.
Setting [2] is: The Pesticide Manual, Eleventh Edition, 1997.

Like-named read-outs stand apart in the source and are kept apart here.

As to `CC(C)(C)C(O)(CCc1ccc(Cl)cc1)Cn1cncn1` (stereo not drawn) [tebuconazole], the water saturation concentration in data set [1] amounted to 32 ppm.

As to `Fc1ccc([C@]2(Cn3cncn3)O[C@H]2c2ccccc2Cl)cc1` (racemic) [epoxiconazole], the water saturation concentration in data set [1] worked out at 7 ppm.

Take `CC(C)(C)C(O)C(Oc1ccc(-c2ccccc2)cc1)n1cncn1` (stereo not drawn) [bitertanol]: the phytotoxicity to plants entry in the data set with plants (setting [2]) is “can cause damage to fruit crops”.

Consider `CCCCC(O)(Cn1cncn1)c1ccc(Cl)cc1Cl` (stereo not drawn) [hexaconazole], for which the phytotoxicity to plants result in the data set on plants (in vivo) was “can cause damage to McIntosh apples”.

Regarding `CC1(C)CCC(Cc2ccc(Cl)cc2)C1(O)Cn1cncn1` (stereo not drawn) [metconazole], in the data set with plants (in vivo), the phytotoxicity to plants entry was “can cause stunting and yellowing of plants”.

In the case of `CC1COC(Cn2cncn2)(c2ccc(Oc3ccc(Cl)cc3)cc2Cl)O1` (stereo not drawn) [difenoconazole], the phytotoxicity to plants result in the data set on plants (setting [2]) is “can cause chlorosis in wheat”.
